# Results reported in US6251885A, “Cytotrienins, process for preparing the same and anti-tumor agent” (The Institute of Physical and Chemical Research, priority 1996, dated 2001).
# Experiments:
# Pseudomonas aeruginosa = assay: Antimicrobial activity, agar dilution method; type: cell-based; conditions: bouillon medium, 37° C., 1 day
# Pyricularia oryzae = assay: microbe, parasite or virus in culture; type: cell-based; conditions: for minimum inhibitory concentration (MIC): Sabouraud's medium, 28° C., 2 days
# K-562 = assay: Inhibition of proliferation of cancer cells (MTT), K-562; type: cell-based; conditions: 17 hours; for Inhibitory effect on proliferation, IC50 value (concentration to inhibit 50% of proliferation): K-562 (human chronic myelogenic leukemia cells)
# Method: (§1) Inhibitory activity for proliferation of cancer cells of cytotrienins I, II, III and IV.
# (§2) Human leukocyte cells K562 and HL-60 were incubated on PRM 1640 medium (comprising 10% of bovine serum) in a culture chamber saturated with 5% carbon dioxide and steam. To the medium was added a series of diluted cytotrienin I, II, III and IV. After 17 hours, MTT reagent was added and growth was measured.
# K562: Human chronic myelogenic leukemia cells
# HL-60 = assay: Inhibition of proliferation of cancer cells (MTT), HL-60; type: cell-based; conditions: HL-60 (human acute promyelogenic leukemia cells), 17 hours
# Method: as §1, §2
# HL-60: Human acute promyelogenic leukemia cells
# Escherichia coli BE1186 = assay: Antimicrobial activity, agar dilution method; type: cell-based; conditions: bouillon medium, 37° C., 1 day
# Method: Antimicrobial activity of cytotrienins I, II, III and IV
# Cytotrienins I, II, III and IV were assayed by the agar dilution method in bouillon medium (examined microorganism; bacteria, 37° C., 1 day) and Sabouraud's medium (examined microorganism: fungus, 28° C., 2 days).
# Candida albicans = assay: Antimicrobial activity, agar dilution method; type: cell-based; conditions: Sabouraud's medium, 28° C., 2 days
# v-src^ts -NRK cell [1] = assay: Activity to revert v-src^ts-NRK cell to normal morphology; type: cell-based, rat; conditions: 32° C., 18 hours; note: key: +: weakly induce normal morphology; + +: induce normal morphology; + + +: highly induce normal morphology
# Method: Activity of cytotrienins I, II, III and IV to revert v-src^ts -NRK cell (rat renal cell infected with temperature-sensitive Rous sarcoma virus) to normal morphology.
# Many oncogenes encode tyrosine kinase. Among them, v-src is believed to encode non-receptor type tyrosine kinase to induce the cell to transformed morphology.
# V-src^ts -NRK cell is typically cultured on Eagle's MEM medium containing 10% of bovine serum at 32° C. in a culture chamber which is saturated with 5% of carbon dioxide and steam. At the permissive temperature (32° C.), a series of diluted cytotrienin I, II, III and IV were added. After 18 hours, inducibility to normal morphology was analyzed.
# Staphylococcus aureus = assay: Antimicrobial activity, agar dilution method; type: cell-based; conditions: bouillon medium, 37° C., 1 day
# v-src^ts -NRK cell [2] = assay: Inhibition of v-src^ts-NRK cell cycle (progress of S phase), flow cytometry; note: key: +: weakly inhibits the progress of S; + +: inhibits the progress of S phase; + + +: strongly inhibits the progress of S phase; type: cell-based, rat; conditions: downshift 39° C. to 32° C., 18 hours
# Method: Inhibitory activity for cell cycle of cytotrienins I, II, III and IV.
# Generally cell divides and proliferates in accordance with a cell cycle including a series of phases such as M phase, G1 phase, S phase and G2 phase. If something happens in the control mechanism of cell cycle, homeostasis breaks and possibility of suffering from cancer or immune disease would increase.
# When v--src^ts -NRK cell is cultured at non-permissive temperature (39° C.), the cell cycle stops at G0/G1 phase and if the temperature is downshifted to permissive temperature (32° C.), the cell advances to S phase and then repeats the proliferation. A series of diluted cytotrienin I, II, III and IV were added simlutaneously with the downshift and, after 18 hours, the advancement of cell cycle to S phase was analyzed by flow cytometry.
# Chlorella vulgaris = assay: Antimicrobial activity, agar dilution method; type: cell-based
# [3] = 24 h, read-out: minimum inhibitory concentration (MIC)
# [4] = 48 h, read-out: minimum inhibitory concentration (MIC)
SMILES,minimum inhibitory concentration (MIC) (Pseudomonas aeruginosa),minimum inhibitory concentration (MIC) (Pyricularia oryzae),"Inhibitory effect on proliferation, IC50 value (concentration to inhibit 50% of proliferation) (K-562)","Inhibitory effect on proliferation, IC50 value (concentration to inhibit 50% of proliferation) (HL-60)",minimum inhibitory concentration (MIC) (Escherichia coli BE1186),minimum inhibitory concentration (MIC) (Candida albicans),reversion activity to induce v-src^ts -NRK cell to normal morphology (v-src^ts -NRK cell [1]; 0.1 μg/ml),reversion activity to induce v-src^ts -NRK cell to normal morphology (v-src^ts -NRK cell [1]; 0.3 μg/ml),reversion activity to induce v-src^ts -NRK cell to normal morphology (v-src^ts -NRK cell [1]; 1 μg/ml),reversion activity to induce v-src^ts -NRK cell to normal morphology (v-src^ts -NRK cell [1]; 3 μg/ml),reversion activity to induce v-src^ts -NRK cell to normal morphology (v-src^ts -NRK cell [1]; 10 μg/ml),minimum inhibitory concentration (MIC) (Staphylococcus aureus),Inhibition effect on v-src^ts -NRK cell cycle (v-src^ts -NRK cell [2]; 0.03 μg/ml),Inhibition effect on v-src^ts -NRK cell cycle (v-src^ts -NRK cell [2]; 0.1 μg/ml),Inhibition effect on v-src^ts -NRK cell cycle (v-src^ts -NRK cell [2]; 0.3 μg/ml),Inhibition effect on v-src^ts -NRK cell cycle (v-src^ts -NRK cell [2]; 1 μg/ml),Inhibition effect on v-src^ts -NRK cell cycle (v-src^ts -NRK cell [2]; 3 μg/ml),minimum inhibitory concentration (MIC) (Chlorella vulgaris),other results
"COC1C=CC=CC=CCC(OC(=O)C2(NC(=O)C3CCCCC3)CC2)C(C)C(O)C(C)=CCCc2cc(O)cc(c2O)NC(=O)C1 (centres unmarked) [Cytotrienin II, cytotrienin II]",> 100 µg/mL,12.5 µg/mL,0.005 µg/mL,0.005 µg/mL,> 100 µg/mL,> 100 µg/mL,+,+,+ + +,+ + +,+ + +,> 100 µg/mL,+,+ +,+ + +,+ + +,+ + +,> 100 µg/mL,
"COC1C=CC=CC=CCC(OC(=O)C2(NC(=O)C3=CCCCC3)CC2)C(C)C(O)C(C)=CCCc2cc(O)cc(c2O)NC(=O)C1 (centres unmarked) [Cytotrienin I, cytotrienin I]",,,,,,,+,+ +,+ + +,+ + +,+ + +,,+,+ +,+ + +,+ + +,+ + +,,"MIC (Pseudomonas aeruginosa; [3]): > 100 µg/mL; MIC (Pyricularia oryzae; [4]): 12.5 µg/mL; IC50 (K-562; K562, K-562 (human chronic myelogenic leukemia cells), read-out: Inhibitory effect on proliferation, IC50 value (concentration to inhibit 50% of proliferation)): 0.02 µg/mL; IC50 (HL-60; read-out: Inhibitory effect on proliferation, IC50 value (concentration to inhibit 50% of proliferation)): 0.005 µg/mL; MIC (Escherichia coli BE1186; [3]): > 100 µg/mL; MIC (Candida albicans; [4]): > 100 µg/mL; MIC (Staphylococcus aureus; [3]): > 100 µg/mL; MIC (Chlorella vulgaris; read-out: minimum inhibitory concentration (MIC)): > 100 µg/mL"
"COC1C=CC=CC=CCC(OC(=O)C2(NC(=O)C3CCCCC3)CC2)C(C)C(O)C(C)=CCCC2=CC(=O)C=C(NC(=O)C1)C2=O (centres unmarked) [Cytotrienin IV, cytotrienin IV]",> 100 µg/mL,12.5 µg/mL,0.001 µg/mL,0.001 µg/mL,> 100 µg/mL,> 100 µg/mL,+ +,,+ + +,+ + +,+ + +,> 100 µg/mL,+ +,+ + +,+ + +,+ + +,+ + +,> 100 µg/mL,
"COC1C=CC=CC=CCC(OC(=O)C2(NC(=O)C3=CCCCC3)CC2)C(C)C(O)C(C)=CCCC2=CC(=O)C=C(NC(=O)C1)C2=O (centres unmarked) [Cytotrienin III, cytotrienin III]",> 100 µg/mL,12.5 µg/mL,0.005 µg/mL,0.001 µg/mL,> 100 µg/mL,> 100 µg/mL,+ +,+ + +,+ + +,+ + +,+ + +,> 100 µg/mL,+ +,+ + +,+ + +,+ + +,+ + +,> 100 µg/mL,
